# Legend:
# Format in all cases: in vivo
# [1] = system: Soybean (AAC Edward; 2018); experiment: Soybean germination assay
# Method: For each treatment 6 replicates of 10 seeds were plated into petri dishes lined with two filter papers and 10 mL of test solution. The covered dishes were stored at room temperature in the dark. Germinated seeds were counted over 24 hours. The following dosages were used when studying the effect of exemplary compounds of the application on soybean germination: control 1% DMSO. 10 μM ABA, 10 μM exemplary compound 1019, 100 um exemplary compound 1019, 10 μM exemplary compound 1019 plus 10 μM ABA and 100 uM exemplary compound 1019 plus 10 μM ABA.
# [2] = system: Canary seed (CDC Bastia; 2018); experiment: Canary seed germination assay
# Hard Red Spring wheat = Hard Red Spring wheat seedling growth (root and shoot length)
# Method: For each treatment 3 replicates of 10 seeds were plated into petri dishes lined with two filter papers and 10 mL of test solution. The covered dishes were stored at room temperature in the dark. At 72 hours, germinated seeds were scored for root length and shoot length. The following dosages were used when studying the effect of the exemplary ABA analogues of the application on wheat shoot and root growth: control 1% DMSO. 10 μM ABA, 10 μM 1019, 100 μM exemplary compound 1019, 10 μM exemplary compound 1019 plus 10 μM ABA […] and 100 μM exemplary compound 1019 plus 10 μM ABA […].
# barley = experiment: Barley radical elongation assay; settings: 10 μM 1019 alone, 3.0 days post treatment (FIG. 11B)
# Method: (§1) Seeds were surface sterilized by incubation in 10% bleach for 20 min with shaking, then rinsed four times with sterile water. Four ml of test solutions were pipetted into petri dishes (100×15 mm) that contain a single filter paper. Fifteen seeds were added to each dish. For rice, barely, and wheat, the experiment involved five treatments (5 μM ABA; 5 μM ABA+10 μM 1019; 10 μM 1019; water control; water+EtOH+NaOH control), with three replications per treatment. For sorghum, treatments were 10 μM ABA; 10 μM ABA+20 μM 1019; 20 μM 1019; water control; water+EtOH+NaOH control. Dishes were sealed with Parafilm, and incubated in the dark at room temperature. Radical length was measured daily post emergence using ImageJ software; shown are 3 days post treatment for barley, wheat and sorghum and 4.5 days post treatment for rice.
# wheat = experiment: Wheat radical elongation assay; settings: 10 μM 1019 alone, 3.0 days post treatment (FIG. 11C)
# Method: as §1
# [3] = system: RIL from L. culinaris var Redberry x L. culinaris ssp. orientalis IG72595; experiment: Lentil RIL germination, emergence and time to flowering (F5-F7, F7 experiment)
# Description: • DSTG=Days from seeding to germination • DSTE=Days from seeding to Emergence • DSTF=Days from seeding to flowering • DSTH=Days from seeding to harvesting of first seed (F7 was not included because the purpose of this generation was to harvest as many seeds as possible) • GA3=gibberellic acid • DMSO=solvent required for dissolving 1019-ABA F7 Experiment
# Objective: Testing the effect of soaking seeds of the F7 generation in four solutions listed below.
# Treatments: water, DMSO, 1019-ABA, and 1019-ABA for 1 day followed by 100 μM GA3
# Plant material: Seeds derived from a cross between L. culinaris var Redberry and L. culinaris ssp. orientalis IG72595
# Experimental set up: 207 RIL-lines in total; 4 seeds (repetitions) per line; 4 treatments
# Data collection: Days from seeding to germination (DSTG), days from seeding to emergence (DSTE), and Days from seeding to first flower were counted. Days from seeding to first harvest was not determined because we needed as many seeds as possible in this generation.
# Days to germination (DSTG), emergence (DSTE), time to flowering (DSTF) and first harvest (DSTH) were determined during the development of a recombinant inbred line (RIL) developed from a cross between L. culinaris var Redberry and L. culinaris ssp. orientalis IG72595. The aim of the project was to find and incorporate Aphanomyces root rot resistance into the cultivated lentil, and the L. orientalis accession was identified with improved resistance. During the development of this RIL line speed breeding techniques were applied i.e. warmer temperatures, longer day length, higher light intensity, restricted pot volume etc. In generation F5, the exemplary compound became available and was tested on germination and emergence. […] The F7 generation was set up as a proper experiment with four treatments i.e. 1019, water, DMSO (solvent needed for dissolving exemplary compound 1019), and exemplary compound 1019 for one day followed by 100 μM GA3 (FIG. 12).
# [4] = F7 experiment, 207 lines (Table 2)
# [5] = generation F7, 819 seeded (Table 1)
smiles,measurement,setting,value
"CC1=C(C#Cc2ccccc2)C(=O)CC(C)(C)[C@@]1(O)/C=C/C(C)=C\C(=O)O [Compound 1019, (2Z,4E)-5-((S)-1-Hydroxy-2,6,6-trimethyl-4-oxo-3-(phenylethynyl)cyclohex-2-en-1-yl)-3-methylpenta-2,4-dienoic acid]",soybean seed germination,[1]; 10 and 100 μM compound in the presence of 10 μM ABA,overcame the inhibition
same,soybean seed germination,[1]; compound alone at 10 or 100 μM,did not affect
same,canary seed germination,"[2]; 10 μM compound plus 10 μM ABA, day 4",did not
same,canary seed germination,"[2]; 100 μM compound plus 10 μM ABA, day 4",overcame inhibition
same,canary seed germination,"[2]; compound alone, 10 μM or 100 μM",Neither concentration of exemplary compound 1019 affected germination
same,root growth,"Hard Red Spring wheat; 10 μM compound plus 10 μM ABA, 72 h (FIG. 9A)",restored root growth to close to control length
same,root growth,"Hard Red Spring wheat; 100 μM compound alone, 72 h",not affected
same,shoot growth,"Hard Red Spring wheat; 100 μM compound alone, 72 h",not inhibited
same,root growth,"Hard Red Spring wheat; 100 μM compound plus 10 μM ABA, 72 h (FIG. 9A)",restored root growth to close to control length
same,shoot growth,"Hard Red Spring wheat; compound plus 10 μM ABA, 72 h (FIG. 9B)",restored
same,radical length (Least Square mean); radical elongation,barley,2.83
same,radical length (Least Square mean); radical elongation,wheat,2.386
same,emergence rate,[3]; F7 experiment,100%
same,% Germ.,[3]; [4],99%
same,Germ. (number of seeds germinated),[3]; [4],807
same,% Germ.,"[3]; F7 experiment, 207 lines (Table 2), listed as 1019-ABA",98.9%
same,seeds emerged,"[3]; F7 experiment, four days after seeding (FIG. 12B)",81%
same,days earlier flowering than water treatment,"[3]; F7 experiment, on average",4 days
same,DSTE (days from seeding to emergence),[3]; generation CVF6,4.03 days
same,DSTF (days from seeding to flowering),[3]; generation CVF6,26.14 days
same,DSTG (days from seeding to germination),[3]; generation CVF6,1.12 days
same,DSTH (days from seeding to harvesting of first seed),[3]; generation CVF6,44.02 days
same,Emerged (number of seeds emerged),"[3]; generation CVF6, 226 seeded",226
same,Germ. (number of seeds germinated),"[3]; generation CVF6, 226 seeded",226
same,DSTE (days from seeding to emergence),[3]; generation F5,4.93 days
same,DSTF (days from seeding to flowering),[3]; generation F5,28.22 days
same,DSTG (days from seeding to germination),[3]; generation F5,2.18 days
same,DSTH (days from seeding to harvesting of first seed),[3]; generation F5,45.41 days
same,Emerged (number of seeds emerged),"[3]; generation F5, 231 seeded",225
same,Germ. (number of seeds germinated),"[3]; generation F5, 231 seeded",230
same,Emerged (number of seeds emerged),[3]; [5],791
same,Germ. (number of seeds germinated),[3]; [5],816
